Measurements taken from patent US9428790B2, “Simultaneous measurement of thrombin generation and clot strength in plasma and whole blood” (SYNAPSE B.V., priority 2012, dated 2016).

Tests used:
Assay type in all cases: biochemical
[1] = test system: thrombin generation; test: Thrombin generation (fluorogenic substrate, calibrated) in triggered platelet-poor plasma with Doolittle peptide; conditions: 0.5 mM up to 2 mM peptide, shear rate 300/s, FIG. 6 lower panel
Procedure: (§1) Blood was obtained through venipuncture (1 volume tri-sodium citrate 0.13M to 9 volumes blood). Free flow or minimal suction should be employed, and vacuum containers avoided. Platelet poor plasma (PPP) was obtained by centrifugation of blood twice at 2630 g for 10 min.
(§2) Recombinant relipidated tissue factor (rTF) not containing polybrene or Ca^++ was from Dade Behring (Marburg, Germany). For each experiment, a fresh mixture of Tissue Factor (TF) and phospholipids vesicles (PL) (Avanti, Alabaster, Ala., USA) was prepared, resulting in a final concentration of 5 pM TF and 4 μM PL in Hepes buffer (20 mM, pH 7.35) containing 5 mg/l BSA (Sigma, A-7030). […] Upon splitting by thrombin, it releases the fluorescent rhodamine (Rho), which is measured by a 470 nm excitation and a 520 emission filter set. […] The by plasmin released fluorescent 7-Amino-4-methylcoumarin (AMC) is measured by a 365 nm excitation and a 430 nm emission filter set. […]
The calibrator, α2M-Thrombin complex (α2MT), was prepared in house as previously described. The concentration of α2M-Thrombin is measured by its ability to hydrolyze the chromogenic substrate S2238. […] After adding bovine antithrombin and heparin (LEO) this material was ready for use as a thrombin calibrator.
Using a signal substrate with a fluorescent leaving group, thrombin generation was measured via a fluorescence detector. […]

[2] = test system: fibrin polymerization; test: Clot strength (viscosity) in triggered platelet-poor plasma on rotary rheometer with Doolittle peptide; conditions: 0.5 mM up to 2 mM peptide, shear rate 300/s, 5 pM TF, 4 μM PL, FIG. 6 upper panel
Procedure: as §1
as §2, with “A-7030). Recombinant tissue plasminogen activator (tPA) was obtained from Boehringer Ingelheim GmbH, Germany as actylase™.” for “A-7030).”
(§3) Using a signal substrate with a fluorescent leaving group, thrombin generation was measured via a fluorescence detector. The strength of the formed fibrin clot was monitored by an oscillating or rotating measuring system of a specially designed rheometer (Physica MCR 301, Anton Paar Germany GmbH, Ostfildern). […]

[3] = biological target: T1, plasmin (Homo sapiens, UniProt P00747); test: Plasmin generation (raw fluorescence, H-Ala-Leu-Lys-AMC) in tPA-triggered platelet-poor plasma; conditions: 100 U/ml tPA, rotation 300/s, FIG. 8 upper panel
T1 construct: from tissue; host or cells: platelet-poor plasma from citrated blood
Procedure: as §1, §2
A total of 700 μl (in case of plasma) or 800 μl (in case of blood) sample and substrate was added on the thermostated sample holder at 37° C. of the rheometer. […] Immediately after addition of the FluCa, the viscosity (or Torque in case of oscillation of the measuring system) and fluorescence were measured every 10 seconds and every second at 470/520 nm respectively. […]

[4] = test system: fibrin; test: Clot strength (viscosity) in tPA-triggered platelet-poor plasma on rotary rheometer; conditions: 100 U/ml tPA, rotation 300/s, FIG. 8 lower panel
Procedure: as §1
as §2, with “A-7030). Recombinant tissue plasminogen activator (tPA) was obtained from Boehringer Ingelheim GmbH, Germany as actylase™.” for “A-7030).”
as §3

[5] = test system: fibrinolysis; test: Clot strength (torque, oscillation mode) in triggered whole blood with tPA; conditions: 300 U/ml tPA, oscillation 10 Hz, angle 1°, inset
Procedure: as §1
as §2, with “A-7030). Recombinant tissue plasminogen activator (tPA) was obtained from Boehringer Ingelheim GmbH, Germany as actylase™.” for “A-7030).”
as §3

T1 sequence (P00747 581-810 limits assumed): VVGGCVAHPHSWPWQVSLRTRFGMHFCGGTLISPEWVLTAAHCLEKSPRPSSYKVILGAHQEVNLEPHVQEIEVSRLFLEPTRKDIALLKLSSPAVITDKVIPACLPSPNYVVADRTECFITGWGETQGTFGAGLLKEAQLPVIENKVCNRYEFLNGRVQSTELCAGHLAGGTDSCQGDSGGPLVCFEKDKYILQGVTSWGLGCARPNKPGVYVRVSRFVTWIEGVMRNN
T1 sequence (P00747 97-580 partner limits assumed): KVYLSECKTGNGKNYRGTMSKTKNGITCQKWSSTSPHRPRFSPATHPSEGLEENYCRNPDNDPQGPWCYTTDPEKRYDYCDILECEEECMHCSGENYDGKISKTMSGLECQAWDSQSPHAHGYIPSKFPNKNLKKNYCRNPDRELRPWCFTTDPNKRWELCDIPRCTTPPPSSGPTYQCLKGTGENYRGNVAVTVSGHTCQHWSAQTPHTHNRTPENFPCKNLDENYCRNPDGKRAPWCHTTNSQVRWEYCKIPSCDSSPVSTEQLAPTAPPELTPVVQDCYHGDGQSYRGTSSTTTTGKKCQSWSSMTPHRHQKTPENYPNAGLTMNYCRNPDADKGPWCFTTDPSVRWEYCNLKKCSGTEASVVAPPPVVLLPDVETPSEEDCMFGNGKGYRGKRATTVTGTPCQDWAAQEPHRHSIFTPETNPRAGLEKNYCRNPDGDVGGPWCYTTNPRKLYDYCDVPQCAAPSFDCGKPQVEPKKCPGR

Substance: Gly-Pro-Arg-Pro (GPRP; printed: Gly-Pro-Arg-Pro) [Doolittle peptide]
- effect on the thrombin generation [1]: minimal
- viscosity of the sample compared to the control sample [2]: significantly decreased the viscosity

Substance: tPA: Recombinant tissue plasminogen activator (tPA) obtained from Boehringer Ingelheim GmbH as actylase™
- plasmin generation (raw fluorescence) [3]: activation of plasmin
- viscosity (degradation of fibrin) [4]: decrease in viscosity
- fibrinolysis (torque) [5]: fibrinolysis could be followed
